Experimental data taken from ChEMBL document CHEMBL4024722, “Discovery of acylguanidine oseltamivir carboxylate derivatives as potent neuraminidase inhibitors” (Bioorg Med Chem, 2017).

Columns and labels:
[1] = Inhibition of Influenza A virus (A/Puerto Rico/8/1934(H1N1)) neuraminidase H259Y mutant using 4-MU-NANA as substrate preincubated for 10 mins followed by substrate addition measured after 1 hr by fluorescence assay
Influenza A virus [2] = assay: Antiviral activity against Influenza A virus (A/Puerto Rico/8/1934(H1N1)) harboring wild type neuraminidase assessed as inhibition of viral replication preincubated for 36 hrs followed by reinfection in new monolayer of MDCK cells every 1 hr for 12 hrs; assay type: functional
Influenza A virus [3] = assay type: functional, cell-based, A/Puerto Rico/8/1934(H1N1)
[4] = Antiviral activity against Influenza A virus (A/Hong Kong/498/97(H3N2)) harboring wild type neuraminidase infected in MDCK cells assessed as inhibition of viral replication preincubated for 36 hrs followed by reinfection in new monolayer of MDCK cells every 1 hr for 24 hrs; assay type: functional, cell-based
in vitro = conditions: dog, MDCK cells

Row | SMILES | IC50 [1] | EC50 (Influenza A virus [2]) | EC50 (Influenza A virus [3]) | EC50 [4] | selectivity ratio (in vitro)
1 | CCC(CC)O[C@@H]1C=C(C(=O)O)C[C@H](NC(=N)NC(=O)CCCc2ccccc2)[C@H]1NC(C)=O | 0.221 µM | – | – | – | –
2 | CCC(CC)O[C@@H]1C=C(C(=O)O)C[C@H](NC(=N)NC(=O)Cc2ccc(C)cc2)[C@H]1NC(C)=O | 0.132 µM | – | – | – | –
3 | CCC(CC)O[C@@H]1C=C(C(=O)O)C[C@H](NC(=N)NC(=O)Cc2ccc(Br)cc2)[C@H]1NC(C)=O | 0.0406 µM | 0.0129 µM | 0.0691 µM | 0.00258 µM | > 14.5
4 | CCC(CC)O[C@@H]1C=C(C(=O)O)C[C@H](NC(=N)NC(=O)CCc2ccc(OC)c(OC)c2)[C@H]1NC(C)=O | 0.0145 µM | 0.0201 µM | 0.023 µM | 0.00562 µM | > 43.4
5 | CCCC(=O)NC(=N)N[C@H]1CC(C(=O)O)=C[C@@H](OC(CC)CC)[C@@H]1NC(C)=O | 0.133 µM | – | – | – | –
6 | CCC(CC)O[C@@H]1C=C(C(=O)O)C[C@H](NC(=N)NC(=O)Cc2ccccc2C)[C@H]1NC(C)=O | 0.225 µM | – | – | – | –
7 | CCC(CC)O[C@@H]1C=C(C(=O)O)C[C@H](NC(=N)NC(=O)Cc2ccc3ccccc3c2)[C@H]1NC(C)=O | 0.0667 µM | 0.00845 µM | 0.0113 µM | 0.00395 µM | > 88.6
8 | CCC(CC)O[C@@H]1C=C(C(=O)O)C[C@H](NC(=N)NC(=O)CCc2cccnc2)[C@H]1NC(C)=O | 0.0211 µM | – | – | – | –
9 | C=CCCC(=O)NC(=N)N[C@H]1CC(C(=O)O)=C[C@@H](OC(CC)CC)[C@@H]1NC(C)=O | 0.0305 µM | 0.0245 µM | 0.00718 µM | 0.00945 µM | > 139
10 | CCC(CC)O[C@@H]1C=C(C(=O)O)C[C@H](NC(=N)NC(=O)CC(C)C)[C@H]1NC(C)=O | 0.445 µM | – | – | – | –
11 | CCCCC(=O)NC(=N)N[C@H]1CC(C(=O)O)=C[C@@H](OC(CC)CC)[C@@H]1NC(C)=O | 0.163 µM | – | – | – | –
12 | CCC(CC)O[C@@H]1C=C(C(=O)O)C[C@H](NC(=N)NC(=O)c2ccncc2)[C@H]1NC(C)=O | 0.0368 µM | – | – | – | –
13 | CCC(CC)O[C@@H]1C=C(C(=O)O)C[C@H](NC(=N)NC(=O)CCc2ccccc2)[C@H]1NC(C)=O | 0.114 µM | – | – | – | –
14 | CCC(CC)O[C@@H]1C=C(C(=O)O)C[C@H](NC(=N)NC(=O)C(C)C)[C@H]1NC(C)=O | 0.132 µM | – | – | – | –
15 | CCC(CC)O[C@@H]1C=C(C(=O)O)C[C@H](NC(=N)NC(=O)c2ccc([N+](=O)[O-])cc2)[C@H]1NC(C)=O | 0.0578 µM | 0.16 µM | 0.136 µM | 0.0392 µM | > 7.4
16 | CCC(=O)NC(=N)N[C@H]1CC(C(=O)O)=C[C@@H](OC(CC)CC)[C@@H]1NC(C)=O | 0.0742 µM | 0.0239 µM | 0.0373 µM | 0.0053 µM | > 26.8
17 | CCC(CC)O[C@@H]1C=C(C(=O)O)C[C@H](NC(=N)NC(=O)c2cccc(C)c2)[C@H]1NC(C)=O | > 1 µM | – | – | – | –
